Assay results reported in patent publication US5869494A, “Uses for barbituric acid analogs” (priority 1997, dated 1999).

How the values were obtained:
Assay in all cases: NCI tumor cell line screen (SRB assay)
Format in all cases: cell-based
Parameters in all cases: activity: dose or concentration left out as unconfirmed
Conditions in all cases: Homo sapiens, read-out: PERCENT GROWTH
SK-OV-3 = tested on: SK-OV-3
Method: (§1) The National Cancer Institute carried out the studies at the direction of the present inventor.
(§2) In the tests, the National Cancer Institute used the SRB (sulforhodamine B) assay as described by Skehan et al., (Journal of the National Cancer Institute, 82:13, Jul. 4, 1990, 1107-1112). Briefly, the assay is as follows. TCA-fixed cells were stained for 30 minutes with 0.4% (wt/vol) SRB dissolved in 1% acetic acid. At the end of the staining period, SRB was removed and cultures were quickly rinsed four times with 1% acetic acid to remove unbound dye. The acetic acid was poured directly into the culture wells from a beaker. […] Residual wash solution was removed by sharply flicking plates over a sink, which ensured the complete removal of rinsing solution. […] After being rinsed, the cultures were air dried until no standing moisture was visible. Bound dye was solubilized with 10 mM unbuffered Tris base (pH 10.5) for 5 minutes on a gyratory shaker.
(§3) Optical density (OD) was read in either a UVmax microtiter plate reader (Molecular Devices, Menlo Park, Calif.) or a Beckman DU-70 spectrophotometer. For maximum sensitivity, OD was measured at 564 nm. Because readings were linear with dye concentrations only below 1.8 OD units, however, suboptimal wavelengths were generally used, so that all samples in an experiment remained within the linear OD range. With most cell lines, wavelengths of approximately 490-530 nm worked well for this purpose.
(§4) Nine different non-small cell lung carcinoma cell lines, six different colon carcinoma cell lines, six different CNS (central nervous system) carcinoma cell lines, seven different melanoma cell lines, six different ovarian carcinoma cell lines, and eight different renal carcinoma cell lines were tested.

UACC-62 = tested on: UACC-62
Method: as §1, §2, §3, §4

SF-268 = tested on: SF-268
Method: as §1, §2, §3, §4

M14 = tested on: M14
Method: as §1, §2, §3, §4

OVCAR-8 = tested on: OVCAR-8
Method: as §1, §2, §3, §4

CAKI-1 = tested on: CAKI-1
Method: as §1, §2, §3, §4

A549/ATCC = tested on: A549/ATCC
Method: as §1, §2, §3, §4

786-0 = tested on: 786-0
Method: as §1, §2, §3, §4

A498 = tested on: A498
Method: as §1, §2, §3, §4

UO-31 = tested on: UO-31
Method: as §1, §2, §3, §4

UACC-257 = tested on: UACC-257
Method: as §1, §2, §3, §4

SNB-75 = tested on: SNB-75
Method: as §1, §2, §3, §4

SNB-19 = tested on: SNB-19
Method: as §1, §2, §3, §4

SF-539 = tested on: SF-539
Method: as §1, §2, §3, §4

KM12 = tested on: KM12
Method: as §1, §2, §3, §4

HOP-62 = tested on: HOP-62
Method: as §1, §2, §3, §4

HOP-92 = tested on: HOP-92
Method: as §1, §2, §3, §4

SW-620 = tested on: SW-620
Method: as §1, §2, §3, §4

Structure (SMILES): CCCCN1C(=O)CC(=O)N(CCCC)C1=S [Compound C1, 4,6(1H, 5H)-pyrimidinedione, 1,3-dibutyldihydro-2-thioxo]
- activity (SK-OV-3; 10^-3.0 Molar): -100%
- activity at 100 µM (SK-OV-3; 10^-4.0 Molar): 85%
- activity at 10 µM (SK-OV-3; 10^-5.0 Molar): 92%
- activity at 1 µM (SK-OV-3; 10^-6.0 Molar): 90%
- activity at 0.1 µM (SK-OV-3; 10^-7.0 Molar): 95%
- activity (UACC-62; 10^-3.0 Molar): -79%
- activity at 100 µM (UACC-62; 10^-4.0 Molar): 53%
- activity at 10 µM (UACC-62; 10^-5.0 Molar): 88%
- activity at 1 µM (UACC-62; 10^-6.0 Molar): 91%
- activity at 0.1 µM (UACC-62; 10^-7.0 Molar): 94%
- activity (SF-268; 10^-3.0 Molar): -58%
- activity at 100 µM (SF-268; 10^-4.0 Molar): 52%
- activity at 10 µM (SF-268; 10^-5.0 Molar): 93%
- activity at 1 µM (SF-268; 10^-6.0 Molar): 100%
- activity at 0.1 µM (SF-268; 10^-7.0 Molar): 98%
- activity (M14; 10^-3.0 Molar): -100%
- activity at 100 µM (M14; 10^-4.0 Molar): 94%
- activity at 10 µM (M14; 10^-5.0 Molar): 105%
- activity at 1 µM (M14; 10^-6.0 Molar): 100%
- activity at 0.1 µM (M14; 10^-7.0 Molar): 106%
- activity (OVCAR-8; 10^-3.0 Molar): -49%
- activity at 100 µM (OVCAR-8; 10^-4.0 Molar): 81%
- activity at 10 µM (OVCAR-8; 10^-5.0 Molar): 108%
- activity at 1 µM (OVCAR-8; 10^-6.0 Molar): 106%
- activity at 0.1 µM (OVCAR-8; 10^-7.0 Molar): 102%
- activity (CAKI-1; 10^-3.0 Molar): -100%
- activity at 100 µM (CAKI-1; 10^-4.0 Molar): 92%
- activity at 10 µM (CAKI-1; 10^-5.0 Molar): 73%
- activity at 1 µM (CAKI-1; 10^-6.0 Molar): 85%
- activity at 0.1 µM (CAKI-1; 10^-7.0 Molar): 103%
- activity (A549/ATCC; 10^-3.0 Molar): -98%
- activity at 100 µM (A549/ATCC; 10^-4.0 Molar): 67%
- activity at 10 µM (A549/ATCC; 10^-5.0 Molar): 95%
- activity at 1 µM (A549/ATCC; 10^-6.0 Molar): 95%
- activity at 0.1 µM (A549/ATCC; 10^-7.0 Molar): 98%
- activity (786-0; 10^-3.0 Molar): -100%
- activity at 100 µM (786-0; 10^-4.0 Molar): 87%
- activity at 10 µM (786-0; 10^-5.0 Molar): 115%
- activity at 1 µM (786-0; 10^-6.0 Molar): 82%
- activity (A498; 10^-3.0 Molar): -81%
- activity at 100 µM (A498; 10^-4.0 Molar): 62%
- activity at 10 µM (A498; 10^-5.0 Molar): 96%
- activity at 1 µM (A498; 10^-6.0 Molar): 105%
- activity at 0.1 µM (A498; 10^-7.0 Molar): 99%
- activity (UO-31; 10^-3.0 Molar): -75%
- activity at 100 µM (UO-31; 10^-4.0 Molar): 63%
- activity at 10 µM (UO-31; 10^-5.0 Molar): 92%
- activity at 1 µM (UO-31; 10^-6.0 Molar): 99%
- activity at 0.1 µM (UO-31; 10^-7.0 Molar): 92%
- activity (UACC-257; 10^-3.0 Molar): -77%
- activity at 100 µM (UACC-257; 10^-4.0 Molar): 75%
- activity at 10 µM (UACC-257; 10^-5.0 Molar): 96%
- activity at 1 µM (UACC-257; 10^-6.0 Molar): 102%
- activity at 0.1 µM (UACC-257; 10^-7.0 Molar): 102%
- activity (SNB-75; 10^-3.0 Molar): -65%
- activity at 100 µM (SNB-75; 10^-4.0 Molar): 83%
- activity at 10 µM (SNB-75; 10^-5.0 Molar): 120%
- activity at 1 µM (SNB-75; 10^-6.0 Molar): 113%
- activity at 0.1 µM (SNB-75; 10^-7.0 Molar): 106%
- activity (SNB-19; 10^-3.0 Molar): -54%
- activity at 100 µM (SNB-19; 10^-4.0 Molar): 90%
- activity at 10 µM (SNB-19; 10^-5.0 Molar): 109%
- activity at 1 µM (SNB-19; 10^-6.0 Molar): 99%
- activity at 0.1 µM (SNB-19; 10^-7.0 Molar): 105%
- activity (SF-539; 10^-3.0 Molar): -100%
- activity at 100 µM (SF-539; 10^-4.0 Molar): 72%
- activity at 10 µM (SF-539; 10^-5.0 Molar): 101%
- activity at 1 µM (SF-539; 10^-6.0 Molar): 104%
- activity at 0.1 µM (SF-539; 10^-7.0 Molar): 95%
- activity (KM12; 10^-3.0 Molar): -90%
- activity at 100 µM (KM12; 10^-4.0 Molar): 76%
- activity at 10 µM (KM12; 10^-5.0 Molar): 102%
- activity at 1 µM (KM12; 10^-6.0 Molar): 101%
- activity at 0.1 µM (KM12; 10^-7.0 Molar): 101%
- activity (HOP-62; 10^-3.0 Molar): -100%
- activity at 100 µM (HOP-62; 10^-4.0 Molar): 93%
- activity at 10 µM (HOP-62; 10^-5.0 Molar): 96%
- activity at 1 µM (HOP-62; 10^-6.0 Molar): 99%
- activity at 0.1 µM (HOP-62; 10^-7.0 Molar): 98%
- activity (HOP-92; 10^-3.0 Molar): -70%
- activity at 100 µM (HOP-92; 10^-4.0 Molar): 51%
- activity at 10 µM (HOP-92; 10^-5.0 Molar): 104%
- activity at 1 µM (HOP-92; 10^-6.0 Molar): 110%
- activity at 0.1 µM (HOP-92; 10^-7.0 Molar): 104%
- activity (SW-620; 10^-3.0 Molar): -39%
- activity at 100 µM (SW-620; 10^-4.0 Molar): 85%
- activity at 10 µM (SW-620; 10^-5.0 Molar): 99%
- activity at 1 µM (SW-620; 10^-6.0 Molar): 100%
- activity at 0.1 µM (SW-620; 10^-7.0 Molar): 110%
